From patent US8703805B2 (Exelixis Patent Company LLC, priority 2005, dated 2014)

Tested on: LXRα and/or LXRβ
Assay: LXR/LXRE co-transfection assay (luciferase reporter, CV-1 cells)
Assay type: cell-based, human
Details: IC50 or EC50 for LXR (LXRα and/or LXRβ, not distinguished), tested as described in Example 109, CV-1 cells
In short: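 Luciferase readout after 20 h compound exposure at 37 °C in CV-1 cells transiently expressing human LXRα or LXRβ with RXRα and an LXRE-driven reporter. Dose-response over 8 points at ½-log spacing, 4 wells each, fitted for EC50/IC50; values average ≥3 independent experiments, efficacy as % of high control.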

| SMILES | EC50 [nM] |
| --- | --- |
| Cc1cc(-c2cccc(S(C)(=O)=O)c2)ccc1-c1cc(C(C)(C)O)nn1-c1cccnc1C(F)(F)F [Example 1390, 2-(5-(3-methyl-3′-(methylsulfonyl)biphenyl-4-yl)-1-(2-(trifluoromethyl)pyridin-3-yl)-1H-pyrazol-3-yl)propan-2-ol] | < 1000 |
| Cc1ccc(-n2nc(C(F)(F)F)cc2-c2ccc(-c3cccc(S(C)(=O)=O)c3)s2)c(Cl)c1O [Example 1251, 2-chloro-6-methyl-3-[5-{5-[3-(methylsulfonyl)phenyl]-2-thienyl}-3-(trifluoromethyl)-1H-pyrazol-1-yl]phenol] | 1000 to 10000 |
| CC(C)(O)c1cc(-c2ccc(-c3cccc(S(N)(=O)=O)c3)s2)n(-c2cc(Cl)ccc2Cl)n1 [Example 1214, 3-{5-[1-(2,5-dichlorophenyl)-3-(1-hydroxy-1-methylethyl)-1H-pyrazol-5-yl]-2-thienyl}benzenesulfonamide] | 1000 to 10000 |
| Cc1cc(-c2cccc(S(C)(=O)=O)c2)ccc1-n1nc(C(C)(C)O)cc1-c1c(Cl)cccc1Cl [Example 122, 2-(5-(2,6-dichlorophenyl)-1-(3-methyl-3′-(methylsulfonyl)biphenyl-4-yl)-1H-pyrazol-3-yl)propan-2-ol] | < 1000 |
| CC(C)(O)c1cc(-c2ccc(-c3cccc(S(C)(=O)=O)c3)s2)n(-c2c(Cl)cncc2Cl)n1 [Example 126, 2-(1-(3,5-dichloropyridin-4-yl)-5-(5-(3-(methylsulfonyl)phenyl)thiophen-2-yl)-1H-pyrazol-3-yl)propan-2-ol] | < 1000 |
| CS(=O)(=O)c1cccc(-c2ccc(-c3cc(C(=O)NCC(F)(F)F)nn3-c3c(Cl)cccc3Cl)c(Cl)c2)c1 [Example 1397, 5-(3-chloro-3′-(methylsulfonyl)biphenyl-4-yl)-1-(2,6-dichlorophenyl)-N-(2,2,2-trifluoroethyl)-1H-pyrazole-3-carboxamide] | < 1000 |
| COC(=O)c1cc(-c2cc(C(F)(F)F)nn2-c2ccccc2Cl)ccc1-c1cccc(S(C)(=O)=O)c1 [Example 1138, methyl 4-[1-(2-chlorophenyl)-3-(trifluoromethyl)-1H-pyrazol-5-yl]-3′-(methylsulfonyl)biphenyl-2-carboxylate] | 1000 to 10000 |
| Cc1cc(-c2cccc(S(C)(=O)=O)c2)ccc1-n1nc(C(C)(C)O)cc1-c1cccc(F)c1F [Example 116, 2-(5-(2,3-difluorophenyl)-1-(3-methyl-3′-(methylsulfonyl)biphenyl-4-yl)-1H-pyrazol-3-yl)propan-2-ol] | < 1000 |
| CC(C)(O)c1cc(-c2ccc(-c3cc(C(F)(F)F)nn3-c3c(Cl)cccc3Cl)s2)cc(S(C)(=O)=O)c1 [Example 1317, 2-[3-{5-[1-(2,6-dichlorophenyl)-3-(trifluoromethyl)-1H-pyrazol-5-yl]-2-thienyl}-5-(methylsulfonyl)phenyl]propan-2-ol] | < 1000 |
| COC(C)(C)c1cc(-c2ccc(-c3cccc(S(C)(=O)=O)c3)s2)n(-c2ccccc2Cl)n1 [Example 134, 1-(2-chlorophenyl)-3-(2-methoxypropan-2-yl)-5-(5-(3-(methylsulfonyl)phenyl)thiophen-2-yl)-1H-pyrazole] | < 1000 |
| CCC(O)CS(=O)(=O)c1cccc(-c2ccc(-c3cc(C(F)(F)F)nn3-c3cc(Cl)ccc3Cl)s2)c1 (centres unmarked) [Example 1146, 1-[(3-{5-[1-(2,5-dichlorophenyl)-3-(trifluoromethyl)-1H-pyrazol-5-yl]-2-thienyl}phenyl)sulfonyl]butan-2-ol] | < 1000 |
| O=C(NC1CCSC1=O)c1ccc(-c2cc(C(F)(F)F)nn2-c2ccccc2Cl)cc1 (centres unmarked) [Example 1355, 4-[1-(2-chlorophenyl)-3-(trifluoromethyl)-1H-pyrazol-5-yl]-N-(2-oxotetrahydro-3-thienyl)benzamide] | 1000 to 10000 |
| CC(C)S(=O)(=O)c1cccc(-c2ccc(-c3cc(C(C)(C)O)nn3-c3ccccc3Cl)s2)c1 [Example 1185, 2-[1-(2-chlorophenyl)-5-(5-{3-[(1-methylethyl)sulfonyl]phenyl}-2-thienyl)-1H-pyrazol-3-yl]propan-2-ol] | < 1000 |
| Cc1c(F)cccc1-n1nc(C(C)(C)O)cc1-c1ccc(-c2cccc(S(C)(=O)=O)c2)s1 [Example 1361, 2-[1-(3-fluoro-2-methylphenyl)-5-{5-[3-(methylsulfonyl)phenyl]-2-thienyl}-1H-pyrazol-3-yl]propan-2-ol] | < 1000 |
| Cc1cc(CC(=O)O)ccc1-c1ccc(-c2cc(C(F)(F)F)nn2-c2ncccc2C(F)(F)F)s1 [Example 1155, [3-methyl-4-(5-{3-(trifluoromethyl)-1-[3-(trifluoromethyl)pyridin-2-yl]-1H-pyrazol-5-yl}-2-thienyl)phenyl]acetic acid] | 1000 to 10000 |
| CC(C)(O)c1ccccc1-n1nc(C(F)(F)F)cc1-c1ccc(-c2cccc(S(C)(=O)=O)c2)s1 [Example 1229] | < 1000 |
| CC(C)(O)c1cc(-c2ccc(-c3cccc(S(C)(=O)=O)c3)s2)n(-c2cccc(Cl)c2)n1 [Example 1256, 2-[1-(3-chlorophenyl)-5-{5-[3-(methylsulfonyl)phenyl]-2-thienyl}-1H-pyrazol-3-yl]propan-2-ol] | 1000 to 10000 |
| COc1cccc(-c2ccc(-c3cc(C(C)(C)O)nn3-c3ccccc3Cl)s2)c1OC [Example 859, 2-[5-{5-[2,3-bis(methyloxy)phenyl]-2-thienyl}-1-(2-chlorophenyl)-1H-pyrazol-3-yl]propan-2-ol] | 1000 to 10000 |
| CC(O)(c1cc(-c2ccc(-c3cccc(S(C)(=O)=O)c3)s2)n(-c2ccccc2Cl)n1)C(F)(F)F (centres unmarked) [Example 1182, 2-[1-(2-chlorophenyl)-5-{5-[3-(methylsulfonyl)phenyl]-2-thienyl}-1H-pyrazol-3-yl]-1,1,1-trifluoropropan-2-ol] | < 1000 |
| CO/N=C(\C)c1cc(-c2ccc(-c3cccc(S(C)(=O)=O)c3)s2)n(-c2ccccc2Cl)n1 [Example 1177, (1E)-1-[1-(2-chlorophenyl)-5-{5-[3-(methylsulfonyl)phenyl]-2-thienyl}-1H-pyrazol-3-yl]ethanone O-methyloxime] | < 1000 |
| CC(C)(O)c1nn(-c2cccc(F)c2Cl)c(-c2ccc(-c3cccc(S(C)(=O)=O)c3)s2)c1Br [Example 1372, 2-[4-bromo-1-(2-chloro-3-fluorophenyl)-5-{5-[3-(methylsulfonyl)phenyl]-2-thienyl}-1H-pyrazol-3-yl]propan-2-ol] | < 1000 |
| CC(C)(O)c1cc(-c2ccc(-c3ccc(C=O)s3)cc2)n(-c2ccccc2Cl)n1 [Example 1289, 5-{4-[1-(2-chlorophenyl)-3-(1-hydroxy-1-methylethyl)-1H-pyrazol-5-yl]phenyl}thiophene-2-carbaldehyde] | 1000 to 10000 |
| Cn1ccc2cc(-c3ccc(-c4cc(C(C)(C)O)nn4-c4ccccc4Cl)cc3)ccc21 [Example 1284, 2-{1-(2-chlorophenyl)-5-[4-(1-methyl-1H-indol-5-yl)phenyl]-1H-pyrazol-3-yl}propan-2-ol] | 1000 to 10000 |
| CC(C)(O)c1ccc(-c2ccc(-c3cc(C(F)(F)F)nn3-c3ncccc3C(F)(F)F)s2)cc1 [Example 1253, 2-[4-(5-{3-(trifluoromethyl)-1-[3-(trifluoromethyl)pyridin-2-yl]-1H-pyrazol-5-yl}-2-thienyl)phenyl]propan-2-ol] | 1000 to 10000 |
| CC(C)(O)c1cc(-c2ccc(-c3cccc(S(C)(=O)=O)c3)cc2Cl)n(-c2c(Cl)cccc2Cl)n1 [Example 142, 2-(5-(3-chloro-3′-(methylsulfonyl)biphenyl-4-yl)-1-(2,6-dichlorophenyl)-1H-pyrazol-3-yl)propan-2-ol] | < 1000 |
| CS(=O)(=O)c1cccc(-c2ccc(-n3nc(C(O)(C(F)(F)F)C(F)(F)F)cc3-c3ccccc3Cl)cc2)c1 [Example 1225, 2-{5-(2-chlorophenyl)-1-[3′-(methylsulfonyl)biphenyl-4-yl]-1H-pyrazol-3-yl}-1,1,1,3,3,3-hexafluoropropan-2-ol] | < 1000 |
